Assays:
[1] = tested on: gene conversion (HR) in U2OS DR-GFP cells; assay: Direct-repeat (DR)-GFP gene conversion assay; format: cell-based, human; details: SCR7 at 1 μM; i53 by plasmid expression
Experimental: (§1) FIG. 4. Activation of HR by i53. FIG. 4A, Schematic of the DR-GFP assay. FIG. 4B. U2OS DR-GFP cells were transfected with the vectors expressing i53, the DM mutant or an empty vector control (EV) along with an I-Scel expression vector. The percentage of GFP-positive cells was determined 48 h post-transfection for each condition and was normalized to the empty vector condition (mean±s.d., N=4). FIG. 4C, U2OS DR-GFP were first transfected with siRNAs targeting the 53BP1 or BRCA1 mRNAs along with a non-targeting siRNA (CTRL). 24 h post-transfection, cells were transfected with the I-SceI expression vector and the percentage of GFP-positive cells was determined 48 h post-siRNA transfection for each condition. The values were normalized to the empty vector condition and presented as the mean±s.e.m; N=4. FIG. 4D, Schematic of the gene targeting assay. FIG. 4E, Gene targeting efficiency at the LMNA locus in parental or 53BP1Δ U2OS cells following transfection with vectors expressing Flag-tagged i53 or its DM mutant or an empty vector control (EV). The DNA-PK inhibitor NU7441 was also added where indicated. 24 h post-transfection, cells were analysed for mClover fluorescence. Individual experiments are presented with the error bar representing the s.d., (N=3). FIG. 4F, Gene targeting at the LMNA locus in G 1-arrested parental (WT) or 53BP1Δ U2OS cells transfected with vectors expressing Flag-tagged i53 or its DM mutant or an empty vector control (EV). The DNA-PK inhibitor NU7441 was also added in the indicated conditions. 24 h post-transfection, cells were analysed for mClover fluorescence. Individual experiments are present with the error bar representing the s.d., (N=3).
The direct repeat (DR)-GFP assay to measure the frequency of HR and the strand annealing EJ2-GFP assay to measure the frequency of MMEJ were performed as previously described. Briefly, U2OS DR-GFP or U2OS EJ2-GFP cells were transfected with 10 nM siRNA (Dharmacon) using Lipofectamine RNAiMAX (Invitrogen). 24 h later, the cells were transfected with the pCBASceI plasmid (Addgene #26477) and plasmids, using Lipofectamine 2000 (Invitrogen). 48 h post-plasmid transfection, the cells were trypsinized and the percentage of GFP-expressing cells was analyzed using the BD FACSCalibur flow cytometer.
AAV-293 cells (Agilent) were transfected with pAAV expression, pDJ and pHelper constructs (Cell Biolabs, Inc., USA) in equal amounts using PEI to produce AAV-DJ expression viruses. 48-72 h later, the viral supernatant was used to transduce target cells for 24 h, and assays were initiated a further 24 h later.

[2] = tested on: gene targeting at the LMNA locus in U2OS cells; details: reference [21]; cited from earlier work
[3] = tested on: gene targeting at the LMNA locus in U2OS cells; assay: LMNA mClover gene targeting assay (CRISPR/Cas9); format: cell-based; details: parental U2OS cells; NU7441 at 10 μM
Experimental: as §1
The Lamin A (LMNA) assay to measure the frequency of introduction of the coding sequence for mClover at the 5′ end of LMNA using the CRISPR/Cas9 was performed as previously described4. Parental or 53BP1Δ U2OS cell lines were transfected with the indicated plasmids using Lipofectamine RNAiMAX (Invitrogen). 24 h later, the cells were electroporated with 2.5 μg of sgRNA plasmids and 2.5 μg of donor template using a Nucleofector (Lonza; protocol X-001). Parental or 53BP1Δ U2OS cells stably expressing CtIP-T847E mutant were transfected with an siRNA against KEAP1 and the indicated plasmids and processed as previously described.

Question: For O=c1[nH]c(=S)[nH]c(N=Cc2ccccc2)c1N=Cc1ccccc1 [SCR7, reference compound], which “Gene conversion in DR-GFP assay (comparison in words)” value [1] is on record?
Answer: Its value is “minimal impact”.

Question: And the “Response of gene targeting at the LMNA locus to treatment” value [2]?
Answer: Its value is “not responsive”.

Question: Which “Change of gene targeting at the LMNA locus (in words)” value [3] does the source give for O=c1cc(N2CCOCC2)oc2c(-c3cccc4c3sc3ccccc34)cccc12 [NU7441, 8-dibenzothiophen-4-yl-2-morpholin-4-yl-chromen-4-one, reference compound] here?
Answer: Its value is “modest increase in gene targeting”.

Question: For c1cnccn1 [SCR7 pyrazine, reference compound], which “Gene conversion in DR-GFP assay (comparison in words)” value [1] is on record?
Answer: Its value is “minimal impact”.

Reference: patent US10808017B2, “Ubiquitin variants and uses therof as 53BP1 inhibitors” (The Governing Council of the University of Toronto, priority 2016, dated 2020)
